Measured values published in patent publication US5726162A (priority 1996, dated 1998).

Tests used:
[1] = test system: fungal inoculum; assay: organism not typed; assay type: cell-based
[2] = test system: Magnaporthe grisea (Pyricularia oryzae); assay: whole plant or invertebrate; assay type: in vivo, Magnaporthe grisea (Pyricularia oryzae) on M201 rice plants; conditions: for pest or weed control at 200 ppm: Pyricularia oryzae, 144 h, read-out: % Control RB

Compound	inhibition at 50 ppm ([1]; read-out: % growth inhibition)	pest or weed control at 200 ppm [2]	other results
O=C1CCC(c2ccc(Cl)cc2)=NN1c1ccccc1 [Compound 14]	100%	0%	–
CCC#CCC1(CC#CCC)c2cc(Cl)ccc2-c2n[nH]c(=O)cc21 [Compound 151, 5,5'-[bis(pent-2-yn-1-yl)]-7-chloro-2,5-dihydroindeno-[1,2-c]-(2H)-pyridazin-3-one]	–	0%	inhibition at 100 ppm ([1]; read-out: % growth inhibition): 80.6%
CCC#CCn1nc(-c2ccc(Cl)cc2C)ccc1=O [Compound 115]	93.7%	50%	–
N#CCN1N=C(c2ccc(Cl)cc2)CCC1=O [Compound 35]	85%	75%	–
CCC#CCN1N=C(c2ccc(Cl)c([N+](=O)[O-])c2)CCC1=O [Compound 40]	–	0%	inhibition at 5 ppm ([1]; read-out: % growth inhibition): 95.7%
CCC#CCn1cc(-c2ccc(Cl)cc2)cc(C#N)c1=O [Compound 146, 5-(4-chlorophenyl)-3-cyano-1-(2-pentyn-1-yl)-2-pyridinone]	–	0%	inhibition at 10 ppm ([1]; read-out: % growth inhibition): 5%
CC#CCN1N=C(c2ccc(Cl)c(Cl)c2)CCC1=O [Compound 23]	–	50%	inhibition at 5 ppm ([1]; read-out: % growth inhibition): 100%
CC#CCN1N=C(c2ccc(Oc3ccccc3)cc2)CCC1=O [Compound 33]	–	0%	inhibition at 100 ppm ([1]; read-out: % growth inhibition): 27.6%
CC(C)(C)C#CCN1N=C(c2ccc(Cl)cc2)CCC1=O [Compound 46]	–	0%	inhibition at 100 ppm ([1]; read-out: % growth inhibition): 100%
CCC#CCn1nc(-c2ccc(Cl)c(C)c2)ccc1=O [Compound 113]	–	95%	inhibition at 10 ppm ([1]; read-out: % growth inhibition): 64.3%
O=C1CCC(c2ccc(Cl)cc2)=NN1CC#CCCl [Compound 72, 6-(4-chlorophenyl)-2-(4'-chloro-2'-butynyl)-4,5-dihydropyridazinone]	–	90%	inhibition at 0.5 ppm ([1]; read-out: % growth inhibition): 96.2%
CC#CCN1N=C(c2ccc(Br)cc2)CCC1=O [Compound 31]	–	90%	inhibition at 5 ppm ([1]; read-out: % growth inhibition): 92.4%
CC#CCn1nc(-c2ccc(Cl)c(C)c2)ccc1=O [Compound 114]	–	50%	inhibition at 5 ppm ([1]; read-out: % growth inhibition): 100%
CCC#CCN1N=C2c3ccccc3CC2CC1=O (stereo not drawn) [Compound 142]	100%	50%	–
CCC#CCN1N=C(c2ccc(Cl)c(C)c2)CCC1=O [Compound 62]	–	99%	inhibition at 1 ppm ([1]; read-out: % growth inhibition): 100%
CC(O)C#CCN1N=C(c2ccc(Cl)cc2)CCC1=O (stereo not drawn) [Compound 47, 6-(4-chlorophenyl)-2-(4'hydroxy-2'-pentynyl)-4,5-dihydropyridazinone]	100%	0%	–
CC#CCN1N=C(c2ccc3ccc4cccc5ccc2c3c45)CCC1=O [Compound 141]	–	0%	inhibition at 100 ppm ([1]; read-out: % growth inhibition): 23.9%
CC#CCN1N=C(c2ccccc2)CCCC1=O [Compound 139, 2-(2-butynyl)-7-phenyl-1,2-diazapin-3-one]	–	0%	inhibition at 100 ppm ([1]; read-out: % growth inhibition): 65%
CC(C)=CCN1N=C(c2ccc(Cl)cc2)CCC1=O [Compound 32]	–	0%	inhibition at 100 ppm ([1]; read-out: % growth inhibition): 100%
COC(=O)C#CCN1N=C(c2ccc(Cl)cc2)CCC1=O [Compound 55]	100%	0%	–
CCC#CCn1nc(-c2ccc(Cl)c(Cl)c2)ccc1=O [Compound 112]	–	90%	inhibition at 10 ppm ([1]; read-out: % growth inhibition): 100%

Compound	inhibition at 50 ppm ([1]; read-out: % growth inhibition)	pest or weed control at 200 ppm [2]	other results
CCC#CCn1nc(-c2ccc(OCC)cc2)ccc1=O [Compound 117]	–	0%	inhibition at 200 ppm ([1]; read-out: % growth inhibition): 34.7%
CCC#CCn1nc(-c2sc3ccccc3c2Br)ccc1=O [Compound 148]	–	0%	inhibition at 10 ppm ([1]; read-out: % growth inhibition): 0%
CC#CCN1N=C(c2ccc(Cl)cc2)CC(C)C1=O (stereo not drawn) [Compound 27]	100%	0%	–
O=C1CCC(c2ccc(Cl)cc2)=NN1CC#CCCO [Compound 50]	100%	0%	–
CCC#CCN1N=C(c2ccc(CC)cc2)CCC1=O [Compound 59]	–	0%	inhibition at 10 ppm ([1]; read-out: % growth inhibition): 100%
CC#CCN1N=C(c2ccc(CC)cc2)CCC1=O [Compound 58]	–	0%	inhibition at 10 ppm ([1]; read-out: % growth inhibition): 39.8%
CCC#CCN1N=C(c2ccc(Cl)c(Cl)c2)CCC1=O [Compound 28, 6-(3,4-dichlorophenyl)-2-(2'-pentynyl)-4,5-dihydropyridazinone]	–	95%	inhibition at 1 ppm ([1]; read-out: % growth inhibition): 100%
CCC#CCN1N=C(c2ccc(Cl)cc2F)CCC1=O [Compound 73]	94.4%	95%	–
CCC#CCN1N=C(c2ccc3ccccc3c2)CCC1=O [Compound 136]	–	99%	inhibition at 1 ppm ([1]; read-out: % growth inhibition): 84.6%
CCC#CCn1nc(-c2ccc(CC)cc2)ccc1=O [Compound 110]	–	0%	inhibition at 10 ppm ([1]; read-out: % growth inhibition): 100%
CC(C)C#CC=CCN1N=C(c2ccc(Cl)cc2)CCC1=O [Compound 70]	–	0%	inhibition at 5 ppm ([1]; read-out: % growth inhibition): 100%
O=C1CCC(c2ccc(Cl)cc2)=NN1CC#CI [Compound 60]	–	50%	inhibition at 10 ppm ([1]; read-out: % growth inhibition): 100%
CC#CCN1N=C(c2ccc(Cl)cc2)C(C)CC1=O (stereo not drawn) [Compound 26, 6-(4-chlorophenyl)-5-methyl-2-(2'-butynyl)-4,5-dihydropyridazinone]	96.3%	95%	–
5-chloro-1-(2-pentyn-1-yl)-2-quinolinone [Compound 149]	–	–	% growth inhibition [1]: 51.5%; % Control RB ([2]; 200 ppm, protectant): 100%
O=C1CCC(c2ccc(Cl)cc2)=NN1CC#CCCF [Compound 51, 6-(4-chlorophenyl)-2-(5'-fluoro-2'-pentynyl)-4,5-dihydropyridazinone]	100%	100%	–
C=C=CN1N=C(c2ccc(Cl)cc2)CCC1=O [Compound 52]	93.7%	0%	–
CC#CCN1N=C(c2cccs2)CCC1=O [Compound 140]	–	75%	inhibition at 100 ppm ([1]; read-out: % growth inhibition): 37.8%
CCC#CCn1nc(-c2ccc(C(C)(C)C)cc2)ccc1=O [Compound 111]	–	0%	inhibition at 25 ppm ([1]; read-out: % growth inhibition): 100%
O=C1CCC(c2ccc(Cl)cc2)=NN1Cc1cccs1 [Compound 36, 6-(4-chlorophenyl)-2-(2'-thienylmethyl)-4,5-dihydropyridazinone]	100%	90%	–
O=C1CCC(c2ccc(Cl)cc2)=NN1CC#CCBr [Compound 71]	92.6%	0%	–
CC#CC(C)N1N=C(c2ccc(Cl)cc2)CCC1=O (stereo not drawn) [Compound 22]	–	75%	inhibition at 100 ppm ([1]; read-out: % growth inhibition): 99.7%

Compound	inhibition at 50 ppm ([1]; read-out: % growth inhibition)	pest or weed control at 200 ppm [2]	other results
CC#CCN1N=C(c2cccc3ccccc23)CCC1=O [Compound 134, 6-(1-naphthyl)-2-(2'-pentynyl)-4,5-dihydropyridazinone]	66.5%	0%	–
COC(C)C#CCN1N=C(c2ccc(Cl)cc2)CCC1=O (stereo not drawn) [Compound 48, 6-(4-chlorophenyl)-2-(4'methoxy-2'-pentynyl)-4,5-dihydropyridazinone]	100%	90%	–
CC#CCn1nc(-c2ccc(Cl)cc2C)ccc1=O [Compound 116]	82.5%	0%	–
CC#CCN1N=C(c2c(OC)ccc3ccc(OC)cc23)CCC1=O [Compound 138]	–	0%	inhibition at 100 ppm ([1]; read-out: % growth inhibition): 64.6%
CC(=O)OC(C)C#CCN1N=C(c2ccc(Cl)cc2)CCC1=O (stereo not drawn) [Compound 49, 6-(4-chlorophenyl)-2-(4'acetoxy-2'-pentynyl)-4,5-dihydropyridazinone]	100%	90%	–
O=C1CCC(c2ccc(Cl)cc2)=NN1CC#CC1CO1 (stereo not drawn) [Compound 77]	–	0%	inhibition at 10 ppm ([1]; read-out: % growth inhibition): 89.2%
CCC#CCN1N=C(c2ccc(C(F)(F)F)cc2)CCC1=O [Compound 41]	–	0%	inhibition at 10 ppm ([1]; read-out: % growth inhibition): 89.2%
CC(F)C#CCN1N=C(c2ccc(Cl)cc2)CCC1=O (stereo not drawn) [Compound 53]	100%	100%	–
CCC#CCN1N=C(c2cc(Cl)c(C)c(Cl)c2Cl)CCC1=O [Compound 43]	–	0%	inhibition at 10 ppm ([1]; read-out: % growth inhibition): 22.3%
C=C(C)C#CCN1N=C(c2ccc(Cl)cc2)CCC1=O [Compound 45]	–	0%	inhibition at 10 ppm ([1]; read-out: % growth inhibition): 100%
CC#CCN1N=C(c2cc(Cl)cc(Cl)c2)CCC1=O [Compound 38]	–	75%	inhibition at 100 ppm ([1]; read-out: % growth inhibition): 75.2%
CCC#CCn1nc(-c2cc3ccccc3s2)ccc1=O [Compound 147]	98.1%	–	–
CCC#CCN1N=C(c2ccc(C(C)(C)C)cc2)CCC1=O [Compound 57]	–	0%	inhibition at 100 ppm ([1]; read-out: % growth inhibition): 95.7%
O=C1CCC(c2ccc(Cl)cc2)=NN1CC1CC1 [Compound 25]	100%	50%	–
CCC#CCN1N=C(c2ccc(OC(F)(F)F)c(F)c2)CCC1=O [Compound 92]	–	90%	inhibition at 1 ppm ([1]; read-out: % growth inhibition): 100%
CCCC#CCN1N=C(c2ccc(Cl)cc2)CCC1=O [Compound 29]	–	95%	inhibition at 1 ppm ([1]; read-out: % growth inhibition): 86.1%
CCC#CCN1N=C(c2cc3ccccc3s2)CCC1=O [Compound 144]	–	–	inhibition at 1 ppm ([1]; read-out: % growth inhibition): 100%
O=C1CCC(c2ccc(Cl)cc2)=NN1CC#Cc1ccc(Cl)cc1 [Compound 68]	–	–	inhibition at 5 ppm ([1]; read-out: % growth inhibition): 10.4%
CC#CCN1N=C(c2ccc(Cl)c([N+](=O)[O-])c2)CCC1=O [Compound 39]	94.6%	0%	–
O=C1CCC(c2ccc(Cl)cc2)=NN1CC#CC(F)=C(F)F [Compound 78]	–	0%	inhibition at 0.5 ppm ([1]; read-out: % growth inhibition): 100%
CC#CCN1N=C(c2cccc(Cl)c2)CCC1=O [Compound 37, 6-(3-chlorophenyl)-2-(2'-butynyl)-4,5-dihydropyridazinone]	–	90%	inhibition at 100 ppm ([1]; read-out: % growth inhibition): 100%
